Key:
Nluc-A2AR = molecular target: T1, Nluc-A2AR (Homo sapiens, UniProt P29274); assay: NanoBRET ligand binding assay, competition with CA200645 in HEK293T cells
T1 construct: expressed in transfected cells; host or cells: HEK293T
Text: We sought to validate the docking studies by quantifying the affinity of each compound at the A2AR using a NanoBRET binding assay. In this experiment, we used N-terminally tagged A2AR with Nanoluciferase (Nluc) that will emit bioluminescence in close proximity with the fluorescent probe, CA200645, in the presence of Nluc substrate. Firstly, we determine the affinity constant of CA200645 in our expression system. […] We next extended our studies to use a classical competition binding assay ([43, 44]) where non-fluorescent ligands compete for binding at the Nluc-A2AR with CA200645. […] HEK293T cells were seeded in 6-well plates at density of 10^6 cells/well and grown overnight at 37 °C in DMEM/F12 medium supplemented with 10 % FBS and 1 % antibiotic/antimycotic. […]
For association-dissociation kinetic experiments, following furimazine incubation, 40 nM of CA200645 (purchased from Hello Bio, Bristol, UK) was added and the plate was immediately read. […] BRET signal was recorded for either 50 minutes or 20 minutes, for kinetic experiments or competition assay as appropriate, on a Mithras LB940 plate reader allowing sequential integration of signal detected from fluorescent probe CA200645 and Nluc. […] Ligand-induced ΔBRET was used to construct the association-dissociation kinetic of the fluorescence probe and competition binding curve of unlabelled ligands. […]

A2AR = tested on: A2AR; set-up: method as in ChEMBL; settings: confidence score equal to 9; ref ChEMBL; read-out: IC50 (A2AR antagonist); cited from earlier work
PDE10A = molecular target: T2, PDE10A (Homo sapiens, UniProt Q9Y233); assay: PDE10A inhibition assay (BPS Bioscience PDE10A assay kit); format: biochemical; settings: concentration-response at PDE10A
T2 construct: purchased BPS Bioscience, San Diego, CA
Text: 400 pg of purified PDE10A was used per reaction, and the plates were read using a TECAN infinite M200.

A3R = molecular target: T3, A3R (Homo sapiens, UniProt P0DMS8); assay: cAMP inhibition in CHO-K1-A3R cells co-stimulated with forskolin; format: cell-based
T3 construct: expressed in transfected cells
T3 sequence (P0DMS8 1-318): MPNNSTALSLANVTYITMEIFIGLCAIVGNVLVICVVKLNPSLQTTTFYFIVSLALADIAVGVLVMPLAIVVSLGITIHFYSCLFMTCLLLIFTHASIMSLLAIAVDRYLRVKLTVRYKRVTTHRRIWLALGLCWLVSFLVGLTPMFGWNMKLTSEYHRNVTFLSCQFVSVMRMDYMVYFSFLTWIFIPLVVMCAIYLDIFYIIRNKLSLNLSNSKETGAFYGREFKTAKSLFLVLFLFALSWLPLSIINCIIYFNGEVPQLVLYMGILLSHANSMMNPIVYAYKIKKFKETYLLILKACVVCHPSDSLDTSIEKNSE

CHO-K1-A2AR cells = assay: Proliferation assay (CCK-8) in CHO-K1-A2AR cells; format: cell-based; settings: for IC50: read-out: pIC50 anti-proliferative effect (converted)
Method: (§1) To test the effect of compounds 1–6 upon proliferation, various cell types were seeded onto clear 96-well plates at proper densities for each; CHO-K1 (2000 cells well^− 1), CHO-K1-A2AR (2000 cells well^− 1), H520 (2500 cells well^− 1), H1563 (2500 cells well^− 1), H1792 (2500 cells well^− 1), LK-2 (2500 cells well^− 1). This was done in suitable media, and they were cultured for 24 hours. After the subsequent addition of compounds 1–6 (ranging 316 nM − 100 µM), cells were allowed to grow further for 72 hours. Quantification of changes in cell number was done by adding 5 µl CCK-8 reagent to each well, accompanied by incubation at 37 °C for 1–3 hours. The determination of OD450 was done using a Mithras LB940 micro-plate reader at 450 nm.
(§2) Data analysis was performed using GraphPad Prism 8.2.1 (San Diegeo, CA). […] As for proliferation assays, the normalization of all data was done relative to the responses obtained upon treating cells with 1 % (v/v) DMSO. Subsequently, a three-parameter logistic equation was used for fitting each set of normalized data β-galactosidase or cAMP data, in order to calculate pEC50/pIC50 and Emax values. Also, the fitting of the proliferation data was done using a three-parameter logistic equation constraining the basal value to 100 and the system maximum to the IMax value obtained for compound 2, since it elicited the maximum inhibition of cellular proliferation in all cell types tested. A one-way ANOVA with Dunnett’s post-test, or Student’s t-test was used to assess the statistical significance for all assays, where p < 0.05 was considered to be significant.

CHO-K1 cells = assay: Proliferation assay (CCK-8) in CHO-K1 cells; format: cell-based; settings: for IC50: Cricetulus griseus, CHO-K1, 72 hours, read-out: pIC50 anti-proliferative effect (converted)
Method: as §1, §2

LK-2 cells [1] = assay: cAMP accumulation in LK-2 cells; format: cell-based; settings: Homo sapiens
Text: (§3) Fig. 7 Lung squamous cell carcinoma and adenocarcinoma cells display increasing sensitivity to compounds 1, 3–5 in terms of proliferation, dependent upon combined A2AR and PDE10A expression. […] Data represented as a percentage of the cell number present after treatment with 1 % DMSO, ± SEM of 4–8 replicates. (B) Correlation plot for pEC50 of each compounds ability to stimulate cAMP production vs. its pIC50 for inhibiting proliferation. Data represented ± SEM. (C) Proliferation factor (pIC50 x span anti-proliferative Additional file 1: Table S5) calculated for 1, 3–6, CGS21680s and forskolin at LK-2, H520, H1792 and H1563 cells. Bars represent the mean Imax ± SEM, whilst individual data points are shown as a scatter plot.

H520 cells [2] = assay: cAMP accumulation in H520 cells; format: cell-based; settings: Homo sapiens
Text: as §3

H1792 cells [3] = assay: cAMP accumulation in H1792 cells; format: cell-based; settings: Homo sapiens
Text: as §3

H1563 cells [4] = assay: cAMP accumulation in H1563 cells; format: cell-based; settings: Homo sapiens
Text: as §3

LK-2 cells [5] = assay: Proliferation assay (CCK-8) in LK-2 cells; format: cell-based, human; settings: for IC50: Homo sapiens, LK-2, 72 hours, read-out: pIC50 anti-proliferative effect (converted)
Method: as §1, §2

H520 cells [6] = assay: Proliferation assay (CCK-8) in H520 cells; format: cell-based, human; settings: for Imax anti-proliferative effect: H520, 10 μM agonist relative to 1% DMSO treatment; for IC50: Homo sapiens, NCI-H520, H520, 72 hours, read-out: pIC50 anti-proliferative effect (converted)
Method: as §1, §2

H1792 cells [7] = assay: Proliferation assay (CCK-8) in H1792 cells; format: cell-based, human; settings: for Imax anti-proliferative effect: H1792, 10 μM agonist relative to 1% DMSO treatment; for IC50: Homo sapiens, NCI-H1792, H1792, 72 hours, read-out: pIC50 anti-proliferative effect (converted)
Method: as §1, §2

H1563 cells [8] = assay: Proliferation assay (CCK-8) in H1563 cells; format: cell-based, human; settings: for Imax anti-proliferative effect: H1563, 10 μM agonist relative to 1% DMSO treatment; for IC50: Homo sapiens, NCI-H1563, H1563, 72 hours, read-out: pIC50 anti-proliferative effect (converted)
Method: as §1, §2

T1 sequence (P29274 whole entry): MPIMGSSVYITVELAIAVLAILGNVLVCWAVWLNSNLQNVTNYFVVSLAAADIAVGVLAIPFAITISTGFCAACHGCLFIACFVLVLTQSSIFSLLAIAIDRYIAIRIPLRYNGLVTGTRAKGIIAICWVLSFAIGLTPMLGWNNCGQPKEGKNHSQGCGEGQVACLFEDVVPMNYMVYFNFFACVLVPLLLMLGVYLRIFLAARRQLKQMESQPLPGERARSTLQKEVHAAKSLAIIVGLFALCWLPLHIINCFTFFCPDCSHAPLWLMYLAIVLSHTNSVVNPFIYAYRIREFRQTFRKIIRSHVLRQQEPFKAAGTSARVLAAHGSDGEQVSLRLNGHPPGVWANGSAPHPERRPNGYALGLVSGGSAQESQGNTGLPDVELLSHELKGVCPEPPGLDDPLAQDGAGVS
T2 sequence (Q9Y233 1-779 isoform Q9Y233-1): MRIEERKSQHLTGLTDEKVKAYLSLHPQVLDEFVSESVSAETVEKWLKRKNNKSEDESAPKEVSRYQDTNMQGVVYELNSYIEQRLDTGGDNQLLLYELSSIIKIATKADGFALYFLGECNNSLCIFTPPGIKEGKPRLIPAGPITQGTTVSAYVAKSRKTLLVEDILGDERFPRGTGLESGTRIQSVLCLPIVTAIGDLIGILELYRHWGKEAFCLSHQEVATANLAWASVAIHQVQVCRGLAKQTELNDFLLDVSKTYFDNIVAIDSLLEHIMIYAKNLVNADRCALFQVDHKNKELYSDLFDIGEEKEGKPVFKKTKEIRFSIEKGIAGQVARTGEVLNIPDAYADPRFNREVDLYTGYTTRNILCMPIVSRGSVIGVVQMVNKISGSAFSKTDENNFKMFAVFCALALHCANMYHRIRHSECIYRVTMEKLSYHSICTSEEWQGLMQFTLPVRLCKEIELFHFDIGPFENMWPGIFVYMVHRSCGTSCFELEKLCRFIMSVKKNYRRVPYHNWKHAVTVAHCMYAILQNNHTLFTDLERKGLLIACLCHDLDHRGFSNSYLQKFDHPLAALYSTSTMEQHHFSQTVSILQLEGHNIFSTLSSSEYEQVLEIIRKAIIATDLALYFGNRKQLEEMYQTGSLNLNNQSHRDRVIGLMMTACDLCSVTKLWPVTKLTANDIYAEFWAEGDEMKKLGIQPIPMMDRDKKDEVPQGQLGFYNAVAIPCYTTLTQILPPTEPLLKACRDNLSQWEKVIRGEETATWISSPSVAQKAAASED

Compound: CC(C)NCC(O)c1ccc(O)c(O)c1 (stereo not shown) [isoprenaline]
- displacement of CA200645 (Nluc-A2AR; competition with 300 nM CA200645): failed to displace CA200645

Compound: CA200645
- disassociation constant (KD) of CA200645 at the Nluc-A2AR (Nluc-A2AR; kinetic association then dissociation, 40 nM CA200645, HEK293 cells): 0.065 µM

Compound: COc1ccccc1Cn1cc2nc(-c3ccc(C)o3)nc(N)c2n1 [CHEMBL3799351]
- IC50 (A2AR): 0.00435 µM

Compound: CCNC(=O)[C@H]1O[C@@H](n2cnc3c(N)nc(NCCc4ccc(CCC(=O)O)cc4)nc32)[C@H](O)[C@@H]1O [CGS21680]
- activity at PDE10A (PDE10A): no significant activity
- A3R functional activity (A3R): agonist activity
- IC50 (CHO-K1-A2AR cells; CHO-K1-A2AR, 72 hours): > 100 µM
- anti-proliferative effect (CHO-K1-A2AR cells; CHO-K1 and CHO-K1-A2AR cells, 72 hours, CCK-8): no anti-proliferative effects
- IC50 (CHO-K1 cells): > 100 µM
- EC50 (LK-2 cells [1]; 0.5 h, LK-2, 30 minutes, read-out: pEC50 cAMP accumulation (converted)): 14.5 µM
- Emax (LK-2 cells [1]; LK-2, percentage of 100 μM forskolin): 7.64 ± 1.6%
- EC50 (H520 cells [2]; NCI-H520, 0.5 h, H520, 30 minutes, read-out: pEC50 cAMP accumulation (converted)): 3.31 µM
- Emax (H520 cells [2]; NCI-H520, H520, percentage of 100 μM forskolin): 20.8 ± 1%
- EC50 (H1792 cells [3]; NCI-H1792, 0.5 h, H1792, 30 minutes, read-out: pEC50 cAMP accumulation (converted)): 3.02 µM
- Emax (H1792 cells [3]; NCI-H1792, H1792, percentage of 100 μM forskolin): 27.3 ± 2.1%
- EC50 (H1563 cells [4]; NCI-H1563, 0.5 h, H1563, 30 minutes, read-out: pEC50 cAMP accumulation (converted)): 4.57 µM
- Emax (H1563 cells [4]; NCI-H1563, H1563, percentage of 100 μM forskolin): 15.6 ± 1.6%
- IC50 (LK-2 cells [5]): > 100 µM
- Imax anti-proliferative effect (LK-2 cells [5]; LK-2, 10 μM agonist relative to 1% DMSO treatment): -3.55±2.6%
- Imax anti-proliferative effect (H520 cells [6]): 0.55±2.0 %
- IC50 (H520 cells [6]): > 100 µM
- Imax anti-proliferative effect (H1792 cells [7]): -4.07±1.6 %
- IC50 (H1792 cells [7]): > 100 µM
- Imax anti-proliferative effect (H1563 cells [8]): 18.87±1.8 %
- IC50 (H1563 cells [8]): 214 µM

Compound: C=C[C@@]1(C)CC(=O)[C@]2(O)[C@@]3(C)[C@@H](O)CCC(C)(C)[C@@H]3[C@H](O)[C@H](OC(C)=O)[C@@]2(C)O1 [Forskolin]
- IC50 (CHO-K1-A2AR cells; CHO-K1-A2AR, 72 hours): 37.2 µM
- Imax anti-proliferative effect (CHO-K1-A2AR cells; CHO-K1-A2AR, 10 μM agonist relative to 1% DMSO treatment): 58.96±2.2
- Δ Imax (CHO-K1-A2AR cells; Imax (CHO-K1-A2AR) - Imax (CHO-K1)): -3.61±4.1
- Δ pIC50 (CHO-K1-A2AR cells; pIC50(CHO-K1-A2AR) - pIC50(CHO-K1)): -0.03±0.1
- Imax anti-proliferative effect (CHO-K1 cells; CHO-K1, 10 μM agonist relative to 1% DMSO treatment): 62.57±3.4
- IC50 (CHO-K1 cells): 34.7 µM
- IC50 (LK-2 cells [5]): 324 µM
- Imax anti-proliferative effect (H520 cells [6]): 31.2±2.1 %
- IC50 (H520 cells [6]): 85.1 µM
- Imax anti-proliferative effect (H1792 cells [7]): 25.9±1.0 %
- IC50 (H1792 cells [7]): 186 µM
- Imax anti-proliferative effect (H1563 cells [8]): 29.9±1.1 %
- IC50 (H1563 cells [8]): 148 µM
